This note sets out measurements from patent US11548894B2, “Benzamide or benzamine compounds useful as anticancer agents for the treatment of human cancers” (The Board of Regents of the University of Texas System, priority 2015, dated 2023).

Where a name gives a salt, the structure may show the parent alone.

The test system of one test is Mut6 cells (TD-NSC). The test can be described thus: luminescence-based Celltiter-Glo cell viability assay (ATP levels) on Mut6 tumor derived neuronal stem cells. Further details: species or system mouse. Particulars: ATP activity as measure of viability, 96 hours; Hydrochloride; read-out: EC50 (TD-NSC). The text has this:
A mouse colony with 100% incidence of GBM and with conditional knockout of p53, pTEN and NF1 genes (Mut6; glioblastoma) was used to isolate primary neuronal stem cells from GBM tumors cultured in 5% Oxygen and in serum free media with defined growth factors. Primary cells from multiple tumors were pooled for high throughput screening with controls against the University of Texas Southwestern (UTSW) compound file, which encompasses ˜200,000 synthetic compounds that represent a large chemical space from several commercial vendors, including 1200 marketed drugs from the Prestwick Chemical Library®, and 600 compounds that went to pre-clinical tests from the NIH library.
A luminescence-based Celltiter-Glo® assay was performed to measure cell viability, using ATP levels as the readout. In brief, opaque-walled multiwell plates with Mut6 cells in culture medium (25 μl per well, 384-well plates) were prepared. Control wells containing medium without cells were prepared to obtain a value for background luminescence. Test compounds were added to experimental wells, and incubated according to culture protocol. The plate and its contents were incubated at 37° C., 5% […] for 96 hours. An ATP standard curve was generated immediately prior to adding the CellTiter-Glo® Reagent. A volume of CellTiter-Glo® Reagent equal to the volume of cell culture medium present in each well (25 μl of reagent to 25 μl of medium containing cells for a 384-well plate) was added. The contents were mixed for 2 minutes on an orbital shaker to induce cell lysis. The plate was allowed to incubate at room temperature for 10 minutes to stabilize the luminescent signal and luminescence recorded. (e.g. GloMax®, Lumistar, SPECTROstar, PHERAstar FS).
Compound 4C12 served as initial lead compound for analog development and for additional studies. […] See Wager, T T et al, “Moving beyond rules: the development of a central nervous system multi-parameter-optimization (CNS MPO) approach to enable alignment of drug-like properties,” ACS Chem. Neurosci. 1(6): 435-49 (2010). IC50 curves for the analog compounds plotted as ATP activity (y axis, a measure of viability) vs. concentration (nM) (x-axis) are shown in FIG. 9.
On to `CCN1CCCC1CNC(=O)c1ccc(Sc2ccc(F)cc2)c([N+](=O)[O-])c1` (stereo not shown) [DS-1-191, N-((1-ethylpyrrolidin-2-yl)methyl)-4-((4-fluorophenyl)thio)-3-nitrobenzamide Hydrochloride], for which the EC50 amounted to 95 nM.

Turning to `CCN(CC)CCNC(=O)c1ccc(Sc2ccc(F)cc2)c([N+](=O)[O-])c1` [DS-1-239, N-(2-(diethylamino)ethyl)-4-((4-fluorophenyl)thio)-3-nitrobenzamide Hydrochloride], the EC50 came to 59 nM. On to `O=C(NCCN1CCOCC1)c1ccc(Sc2ccc(F)cc2)c([N+](=O)[O-])c1` [DS-1-241, 4-((4-fluorophenyl)thio)-N-(2-morpholinoethyl)-3-nitrobenzamide Hydrochloride], for which the EC50 was 44 nM.

Staying with this test, now noted: Mus musculus, 96 h, ATP activity as measure of viability, 96 hours; read-out: EC50 (TD-NSC).
As for `O=C(NCc1ccccn1)c1ccc(Sc2ccc(F)cc2)c([N+](=O)[O-])c1` [DS-1-023, 4-((4-fluorophenyl)thio)-3-nitro-N-(pyridin-2-ylmethyl)benzamide], the EC50 is above 1000 nM.

Regarding `CCN1CCCC1CNC(=O)c1ccc(Sc2ccc(C(F)(F)F)cc2)c([N+](=O)[O-])c1` (stereo not shown) [DS-1-065, N-((1-ethylpyrrolidin-2-yl)methyl)-3-nitro-4-((4-(trifluoromethyl)phenyl)thio)benzamide], the half-maximal effective concentration (EC50) was 86 nM.

Turning to `CCN1CCCC1CNC(=O)c1ccc(Sc2ccc(F)c(F)c2)c([N+](=O)[O-])c1` (stereo not shown) [DS-1-067, 4-((3,4-difluorophenyl)thio)-N-((1-ethylpyrrolidin-2-yl)methyl)-3-nitrobenzamide], the EC50 was 118 nM. On the same count and under the same terms, to `CCN1CCCC1CNC(=O)c1ccc(Sc2ccccn2)c([N+](=O)[O-])c1` (stereo not shown) [DS-1-071, N-((1-ethylpyrrolidin-2-yl)methyl)-3-nitro-4-(pyridin-2-ylthio)benzamide] belongs 419 nM; to `CCN1CCCC1CNC(=O)c1ccc(Sc2ccccc2F)c([N+](=O)[O-])c1` (stereo not shown) [DS-1-075, N-((1-ethylpyrrolidin-2-yl)methyl)-4-((2-fluorophenyl)thio)-3-nitrobenzamide], 102 nM; to `CCN1CCCC1CNC(=O)c1ccc(Sc2ccc(NC(C)=O)cc2)c([N+](=O)[O-])c1` (stereo not shown) [DS-1-077, 4-((4-acetamidophenyl)thio)-N-((1-ethylpyrrolidin-2-yl)methyl)-3-nitrobenzamide], above 1000 nM.

Turning to `O=C(NCCN1CCOCC1)c1ccc(Sc2ccc(F)cc2)c([N+](=O)[O-])c1` [DS-1-089, 4-((4-fluorophenyl)thio)-N-(2-morpholinoethyl)-3-nitrobenzamide], the EC50 came to 25 nM. As to `CCN1CCCC1CNC(=O)c1ccc(Oc2ccc(F)cc2)c([N+](=O)[O-])c1` (stereo not shown) [DS-1-103, N-((1-ethylpyrrolidin-2-yl)methyl)-4-(4-fluorophenoxy)-3-nitrobenzamide], the concentration giving a half-maximal response (EC50) is 36 nM. `CCN1CCCC1CNC(=O)c1ccc(Nc2ccc(F)cc2)c([N+](=O)[O-])c1` (stereo not shown) [DS-1-105, N-((1-ethylpyrrolidin-2-yl)methyl)-4-((4-fluorophenyl)amino)-3-nitrobenzamide]: the EC50 turned out to be 255 nM.

In the case of `CCN1CCCC1CNC(=O)c1ccc(Sc2ccc(F)cc2)cc1` (stereo not shown) [DS-1-117, N-((1-ethylpyrrolidin-2-yl)methyl)-4-((4-fluorophenyl)thio)benzamide], the EC50 is 394 nM. Still for that read-out and setting: to `CC[N+]1(C)CCCC1CNC(=O)c1ccc(Sc2ccc(F)cc2)c([N+](=O)[O-])c1` (stereo not shown) [DS-1-119, 1-ethyl-2-((4-((4-fluorophenyl)thio)-3-nitrobenzamido)methyl)-1-methylpyrrolidin-1-ium Iodide] belongs above 1000 nM; to `CCN1CCCC1CNC(=O)c1ccc(Sc2ccc(C(C)C)cc2)c([N+](=O)[O-])c1` (stereo not shown) [DS-1-123, N-((1-ethylpyrrolidin-2-yl)methyl)-4-((4-isopropylphenyl)thio)-3-nitrobenzamide], 516 nM; to `CCN1CCCC1CNC(=O)c1ccc([S+]([O-])c2ccc(F)cc2)c([N+](=O)[O-])c1` (stereo not shown) [DS-1-135, N-((1-ethylpyrrolidin-2-yl)methyl)-4-((4-fluorophenyl)sulfinyl)-3-nitrobenzamide], above 1000 nM. As for `CCN1CCCC1CNC(=O)c1ccc(SC2CCCCC2)c([N+](=O)[O-])c1` (stereo not shown) [DS-1-139, 4-(cyclohexylthio)-N-((1-ethylpyrrolidin-2-yl)methyl)-3-nitrobenzamide], the concentration for a half-maximal effect (EC50) was found to be 192 nM. For the compound `CCN1CCCC1CNC(=O)c1ccc(Sc2ccc(N)cc2)c([N+](=O)[O-])c1` (stereo not shown) [DS-1-177, 4-((4-aminophenyl)thio)-N-((1-ethylpyrrolidin-2-yl)methyl)-3-nitrobenzamide], the EC50 is 340 nM. On to `CCN1CCCC1CNC(=O)c1ccc(Sc2ccc(C(=O)O)cc2)c([N+](=O)[O-])c1` (stereo not shown) [DS-1-179, 4-((4-(((1-ethylpyrrolidin-2-yl)methyl)carbamoyl)-2-nitrophenyl)thio)benzoic Acid Hydrochloride], for which the half-maximal effective concentration (EC50) is above 1000 nM. `CCN1CCCC1CNC(=O)c1ccc(-c2ccc(F)cc2)c([N+](=O)[O-])c1` (stereo not shown) [DS-1-181, N-((1-ethylpyrrolidin-2-yl)methyl)-4′-fluoro-2-nitro-[1,1′-biphenyl]-4-carboxamide]: the half-maximal effective concentration (EC50) was above 1000 nM. As to `CCN1CCCC1CNC(=O)c1ccc(-c2cccc(F)c2)c([N+](=O)[O-])c1` (stereo not shown) [DS-1-183, N-((1-ethylpyrrolidin-2-yl)methyl)-3′-fluoro-2-nitro-[1,1′-biphenyl]-4-carboxamide], the EC50 was above 1000 nM. With `CCN1CCCC1CNC(=O)c1ccc(Sc2ccc(Br)cc2)c([N+](=O)[O-])c1` (stereo not shown) [DS-1-185, 4-((4-bromophenyl)thio)-N-((1-ethylpyrrolidin-2-yl)methyl)-3-nitrobenzamide], the EC50 was found to be 62 nM. `CN(CCN)CCNC(=O)c1ccc(Sc2ccc(F)cc2)c([N+](=O)[O-])c1` [DS-1-195, N-(2-((2-aminoethyl)(methyl)amino)ethyl)-4-((4-fluorophenyl)thio)-3-nitrobenzamide]: the 50% effective concentration (EC50) was above 1000 nM. Regarding `CN(CCNC(=O)CCCC[C@@H]1SC[C@@H]2NC(=O)N[C@@H]21)CCNC(=O)c1ccc(Sc2ccc(F)cc2)c([N+](=O)[O-])c1` [DS-1-205], the EC50 stood at 40000 nM. `CCN1CCCC1CNC(=O)c1ccc(Sc2ccc(F)cc2)nc1` (stereo not shown) [DS-1-209, N-((1-ethylpyrrolidin-2-yl)methyl)-6-((4-fluorophenyl)thio)nicotinamide]: the concentration giving a half-maximal response (EC50) is above 1000 nM.

In the case of `CCN1CCCC1CNC(=O)c1ccc(NS(=O)(=O)c2ccc(F)cc2)c([N+](=O)[O-])c1` (stereo not shown) [DS-1-213, N-((1-ethylpyrrolidin-2-yl)methyl)-4-(4-fluorophenylsulfonamido)-3-nitrobenzamide], the 50% effective concentration (EC50) was above 1000 nM.

In the case of `CCN1CCCC1CNC(=O)c1ccc(Sc2ccc(O)cc2)c([N+](=O)[O-])c1` (stereo not shown) [DS-1-217, N-((1-ethylpyrrolidin-2-yl)methyl)-4-((4-hydroxyphenyl)thio)-3-nitrobenzamide], the EC50 came to 485 nM.

With `CCN1CCCC1CNC(=O)c1ccc(Sc2ccc(F)cc2)c(N)c1` (stereo not shown) [DS-1-225, 3-amino-N-((1-ethylpyrrolidin-2-yl)methyl)-4-((4-fluorophenyl)thio)benzamide], the EC50 came out at 192 nM. On to `CCN1CCCC1CNC(=O)c1ccc(Sc2ccc(F)cc2)c(C(N)=O)c1` (stereo not shown) [DS-1-231-M, N^1-((1-ethylpyrrolidin-2-yl)methyl)-4-((4-fluorophenyl)thio)isophthalamide], for which the EC50 is above 1000 nM. On the same count and under the same terms, the value for `C#CCOc1ccc(Sc2ccc(C(=O)NCC3CCCN3CC)cc2[N+](=O)[O-])cc1` (stereo not shown) [DS-1-261, N-((1-ethylpyrrolidin-2-yl)methyl)-3-nitro-4-((4-(prop-2-yn-1-yloxy)phenyl)thio)benzamide] was 269 nM. Turning to `CCOC(=O)c1cc(F)ccc1Sc1ccc(C(=O)NCC2CCCN2CC)cc1[N+](=O)[O-]` (stereo not shown) [DS-1-265, Ethyl 2-((4-(((1-ethylpyrrolidin-2-yl)methyl)carbamoyl)-2-nitrophenyl)thio)-5-fluorobenzoate], the EC50 was above 1000 nM. With `CCN1CCCC1CNC(=O)c1ccc(Sc2cccc3cccnc23)c([N+](=O)[O-])c1` (stereo not shown) [DS-1-269, N-((1-ethylpyrrolidin-2-yl)methyl)-3-nitro-4-(quinolin-8-ylthio)benzamide], the 50% effective concentration (EC50) was found to be 535 nM. As to `CCN1CCCC1CNC(=O)c1ccc(Sc2ccc(C)cc2)c([N+](=O)[O-])c1` (stereo not shown) [DS-1-271, N-((1-ethylpyrrolidin-2-yl)methyl)-3-nitro-4-(p-tolylthio)benzamide], the EC50 amounted to 55 nM.

Still in this test, the particulars now being: Mus musculus; ATP activity as measure of viability, 96 hours; read-out: EC50 (TD-NSC).
As for `CCN1CCCC1CNC(=O)c1ccc(Sc2ccc([N+](=O)[O-])cc2)c([N+](=O)[O-])c1` (stereo not shown) [DS-1-137, N-((1-ethylpyrrolidin-2-yl)methyl)-3-nitro-4-((4-nitrophenyl)thio)benzamide], the EC50 amounted to 69 nM.
